ChEMBL document CHEMBL3217720, “Identification of an inhibitor of the ubiquitinproteasome system that induces accumulation of polyubiquitinated proteins in the absence of blocking of proteasome function” (Medchemcomm, 2014)
Activity calls are given as the source filed them. The rule behind the calls is not given here.

Tests used:
MelJuSo UbG76V-YFP [1] = experiment: Inhibition of Ubiquitin-proteasome system in human MelJuSo UbG76V-YFP cells assessed as accumulation of UbG76V-YFP protein at 5 to 10 uM after 18 hrs by immunoblot method; type: cell-based
MelJuSo UbG76V-YFP [2] = experiment: Inhibition of Ubiquitin-proteasome system in human MelJuSo UbG76V-YFP cells assessed as accumulation of K48-linked poly-ubiquitinated proteins at 5 to 10 uM after 18 hrs by immunoblot method; type: cell-based
MelJuSo UbG76V-YFP [3] = experiment: Inhibition of Ubiquitin-proteasome system in human MelJuSo UbG76V-YFP cells assessed as Hmox-1 accumulation 5 to 10 uM after 18 hrs by immunoblot method; type: cell-based
MelJuSo UbG76V-YFP [4] = experiment: Inhibition of Ubiquitin-proteasome system in human MelJuSo UbG76V-YFP cells assessed as HSP70B' accumulation 5 to 10 uM after 18 hrs by immunoblot method; type: cell-based
HCT-116 = experiment: Cytotoxicity against human HCT116 cells after 3 days by FMCA method; type: functional, cell-based; details: HCT-116, 72 h
Kasumi 1 = experiment: Cytotoxicity against human Kasumi-1 cells after 3 days by FMCA method; type: functional, cell-based; details: Kasumi 1, 72 h
HL-60 = experiment: Cytotoxicity against human HL60 cells after 3 days by FMCA method; type: functional, cell-based; details: HL-60, 72 h
HEK293 = experiment: Inhibition of Ubiquitin-proteasome system in human HEK293 cells assessed as accumulation of ornithine decarboxylase-green fluorescent fusion protein at 5 uM after 16 hrs; type: cell-based
[5] = Cytotoxicity against human NCI-H929 cells after 3 days by FMCA method; type: functional, cell-based; details: NCI-H929, 72 h
[6] = Cytotoxicity against human MelJuSo cells after 3 days by FMCA method; type: functional, cell-based; details: MEL-JUSO, 72 h
CCRF-CEM = experiment: Cytotoxicity against human CCRF-CEM cells after 3 days by FMCA method; type: functional, cell-based; details: 72 h
[7] = biological target: T1, 26S proteasome (Homo sapiens) (UniProt Q99460+P49721+P20618+P28074+P28062+P28065+P28072+O00487+P25786+P25787+P25788+P25789+P28066+P60900+O14818+Q8TAA3+P40306+A5LHX3+P49720+P28070+Q99436+Q16186+P35998+P62191+P43686+P62333+P17980+P62195+Q13200+O43242+O00232+O00231+Q15008+P51665+Q9UNM6+P55036+P48556+P60896); experiment: Inhibition of erythrocyte 20S proteasome (unknown origin) assessed as inhibition of chymotrypsin activity at 50 uM after 15 mins using Suc-LLVY-AMC substrate by fluorescence assay; type: protein-complex assay
MelJuSo UbG76V-YFP [8] = experiment: Inhibition of Ubiquitin-proteasome system in human MelJuSo UbG76V-YFP cells assessed as accumulation of K48-linked poly-ubiquitinated proteins at 5 uM by immunoblot method; type: cell-based
[9] = (§1) Cytotoxicity against human Pseudomyxoma peritonei cells after 3 days by FMCA method; type: functional, cell-based; details: 72 h
[10] = Cytotoxicity against human 8226/DOX40 cells after 3 days by FMCA method; type: functional, cell-based; details: 72 h
MelJuSo UbG76V-YFP [11] = experiment: Inhibition of Ubiquitin-proteasome system in human MelJuSo UbG76V-YFP cells assessed as accumulation of UbG76V-YFP protein at 5 uM after 18 hrs by immunoblot method; type: cell-based
MelJuSo UbG76V-YFP [12] = experiment: Inhibition of Ubiquitin-proteasome system in human MelJuSo UbG76V-YFP cells assessed as accumulation of K48-linked poly-ubiquitinated proteins at 5 to 100 uM after 18 hrs by immunoblot method; type: cell-based
MelJuSo UbG76V-YFP [13] = experiment: Inhibition of Ubiquitin-proteasome system in human MelJuSo UbG76V-YFP cells assessed as accumulation of UbG76V-YFP protein at 5 uM; type: cell-based
[14] = Cytotoxicity against human RPMI18226 cells after 3 days by FMCA method; type: functional, cell-based; details: RPMI18226, 72 h
[15] = (§2) Cytotoxicity against human CLL cells after 3 days by FMCA method; type: functional, cell-based; details: 72 h
MelJuSo UbG76V-YFP [16] = experiment: Inhibition of Ubiquitin-proteasome system in human MelJuSo UbG76V-YFP cells assessed as accumulation of K48-linked poly-ubiquitinated proteins at 10 uM after 18 hrs by immunoblot method; type: cell-based
MelJuSo UbG76V-YFP [17] = experiment: Inhibition of Ubiquitin-proteasome system in human MelJuSo UbG76V-YFP cells assessed as p21 accumulation 20 to 50 uM after 18 hrs by immunoblot method; type: cell-based
[18] = biological target: T1, 26S proteasome (Homo sapiens); experiment: Inhibition of erythrocyte 20S proteasome (unknown origin) assessed as inhibition of chymotrypsin activity at 10 uM after 15 mins using Suc-LLVY-AMC substrate by fluorescence assay; type: protein-complex assay
MelJuSo UbG76V-YFP [19] = experiment: Inhibition of Ubiquitin-proteasome system in human MelJuSo UbG76V-YFP cells assessed as accumulation of UbG76V-YFP protein at 50 uM after 18 hrs by immunoblot method; type: cell-based
MelJuSo UbG76V-YFP [20] = experiment: Inhibition of Ubiquitin-proteasome system in human MelJuSo UbG76V-YFP cells assessed as HSP70B' accumulation 50 uM after 18 hrs by immunoblot method; type: cell-based
[21] = (§3) Cytotoxicity against human Colon cancer cells after 3 days by FMCA method; type: functional, cell-based; details: Cancer cell lines, 72 h
MelJuSo UbG76V-YFP [22] = experiment: Inhibition of Ubiquitin-proteasome system in human MelJuSo UbG76V-YFP cells assessed as HSP70B' accumulation 5 to 20 uM after 18 hrs by immunoblot method; type: cell-based
[23] = biological target: T1, 26S proteasome (Homo sapiens); details: MelJuSo UbG76V-YFP, 0.1 uM
Description: Inhibition of 20S proteasome in human MelJuSo UbG76V-YFP cells assessed as accumulation of UbG76V-YFP protein at 0.1 uM after 6 hrs by immunoblot method

Homo sapiens = organism: Homo sapiens; experiment: as §1; type: functional, cell-based
CLL = experiment: as §2; type: functional, cell-based
[24] = biological target: T1, 26S proteasome (Homo sapiens); details: MelJuSo UbG76V-YFP, 0.1 uM; remark: listed apart in the source
Description: Inhibition of 20S proteasome in human MelJuSo UbG76V-YFP cells assessed as accumulation of K48-linked poly-ubiquitinated proteins at 0.1 uM after 6 hrs by immunoblot method

Cancer cell lines = experiment: as §3; type: functional, cell-based

**Q.** Which inhibition (MelJuSo UbG76V-YFP [1]) does the source give for `CC1(C)C(N(O)C(=O)Nc2ccc(Cl)cc2)N(c2ccc(Cl)cc2)C(=O)N1CC(=O)N/N=C/C=C/c1ccc([N+](=O)[O-])o1` (stereo unspecified) here?
**A.** inactive

**Q.** What about the inhibition (MelJuSo UbG76V-YFP [2]) of the same compound?
**A.** Active

**Q.** And the inhibition (MelJuSo UbG76V-YFP [3])?
**A.** Active

**Q.** And the inhibition (MelJuSo UbG76V-YFP [4])?
**A.** inactive

**Q.** For `O=C(CCl)Nc1cccc(NC2=NS(=O)(=O)c3ccccc32)c1`, which inhibition (MelJuSo UbG76V-YFP [1]) is on record?
**A.** inactive

**Q.** What about the inhibition (MelJuSo UbG76V-YFP [2]) of the same compound?
**A.** Active

**Q.** What about the inhibition (MelJuSo UbG76V-YFP [3]) of the same compound?
**A.** Active

**Q.** What about the inhibition (MelJuSo UbG76V-YFP [4]) of the same compound?
**A.** inactive

**Q.** Which inhibition (MelJuSo UbG76V-YFP [4]) does the source give for `COc1cc(/C=C/C(=O)N2CCC=CC2=O)cc(OC)c1OC` here?
**A.** inactive

**Q.** For `O=P(Oc1ccccc1)(Oc1ccccc1)OC1C=CS(=O)(=O)C1` (stereo unspecified), which IC50 (HCT-116) is on record?
**A.** 5.8 µM

**Q.** And the IC50 (Kasumi 1)?
**A.** 1.9 µM

**Q.** And the IC50 (HL-60)?
**A.** 2.5 µM

**Q.** And the inhibition (HEK293)?
**A.** Active

**Q.** What about the IC50 [5] of the same compound?
**A.** 0.61 µM

**Q.** What about the IC50 [6] of the same compound?
**A.** 5.4 µM

**Q.** And the IC50 (CCRF-CEM)?
**A.** 1.8 µM

**Q.** What about the inhibition (MelJuSo UbG76V-YFP [1]) of the same compound?
**A.** inactive

**Q.** What about the inhibition [7] of the same compound?
**A.** Active

**Q.** What about the inhibition (MelJuSo UbG76V-YFP [2]) of the same compound?
**A.** Active

**Q.** What about the inhibition (MelJuSo UbG76V-YFP [3]) of the same compound?
**A.** Active

**Q.** And the inhibition (MelJuSo UbG76V-YFP [8])?
**A.** Active

**Q.** What about the inhibition (MelJuSo UbG76V-YFP [4]) of the same compound?
**A.** inactive

**Q.** What about the IC50 [9] of the same compound?
**A.** 0.51 µM

**Q.** And the IC50 [10]?
**A.** 2.8 µM

**Q.** And the inhibition (MelJuSo UbG76V-YFP [11])?
**A.** inactive

**Q.** And the inhibition (MelJuSo UbG76V-YFP [12])?
**A.** Active

**Q.** And the inhibition (MelJuSo UbG76V-YFP [13])?
**A.** Active

**Q.** What about the IC50 [14] of the same compound?
**A.** 1.3 µM

**Q.** What about the IC50 [15] of the same compound?
**A.** 0.69 µM

**Q.** What about the inhibition (MelJuSo UbG76V-YFP [16]) of the same compound?
**A.** Active

**Q.** And the inhibition (MelJuSo UbG76V-YFP [17])?
**A.** Active

**Q.** What about the inhibition [18] of the same compound?
**A.** inactive

**Q.** What about the inhibition (MelJuSo UbG76V-YFP [19]) of the same compound?
**A.** Active

**Q.** And the inhibition (MelJuSo UbG76V-YFP [20])?
**A.** Active

**Q.** What about the IC50 [21] of the same compound?
**A.** 1.7 µM

**Q.** And the inhibition (MelJuSo UbG76V-YFP [22])?
**A.** inactive

**Q.** Which results are given for `CC(C)C[C@H](NC(=O)[C@H](Cc1ccccc1)NC(=O)c1cnccn1)B(O)O`?
**A.** inhibition [23]: Active; inhibition (Homo sapiens): Active; inhibition (CLL): Active; inhibition [24]: Active; inhibition (Cancer cell lines): Active
